Series [1] can be described thus: Thermodynamic solubility at pH 7.4. It is filed as physicochemical. Particulars: buffer, read-out: Therm_solubility.
A short description of series [2]: Half life in rat liver microsome. The class given is ADME. The following applies: liver microsomes. Background: Liver microsomes are vesicles of endoplasmic reticulum, rich in cytochrome P450 enzymes.
The target of series [3] is T1, Histone deacetylase 1 (Homo sapiens, UniProt Q13547).
Series [4] relates to HCT-116. Put plainly: Antiproliferative activity against human HCT116 cells. The class given is functional, cell-based.
Series [5] deals with T2, Protein deacetylase HDAC6 (Homo sapiens, UniProt Q9UBN7).
T2 sequence (Q9UBN7 whole entry): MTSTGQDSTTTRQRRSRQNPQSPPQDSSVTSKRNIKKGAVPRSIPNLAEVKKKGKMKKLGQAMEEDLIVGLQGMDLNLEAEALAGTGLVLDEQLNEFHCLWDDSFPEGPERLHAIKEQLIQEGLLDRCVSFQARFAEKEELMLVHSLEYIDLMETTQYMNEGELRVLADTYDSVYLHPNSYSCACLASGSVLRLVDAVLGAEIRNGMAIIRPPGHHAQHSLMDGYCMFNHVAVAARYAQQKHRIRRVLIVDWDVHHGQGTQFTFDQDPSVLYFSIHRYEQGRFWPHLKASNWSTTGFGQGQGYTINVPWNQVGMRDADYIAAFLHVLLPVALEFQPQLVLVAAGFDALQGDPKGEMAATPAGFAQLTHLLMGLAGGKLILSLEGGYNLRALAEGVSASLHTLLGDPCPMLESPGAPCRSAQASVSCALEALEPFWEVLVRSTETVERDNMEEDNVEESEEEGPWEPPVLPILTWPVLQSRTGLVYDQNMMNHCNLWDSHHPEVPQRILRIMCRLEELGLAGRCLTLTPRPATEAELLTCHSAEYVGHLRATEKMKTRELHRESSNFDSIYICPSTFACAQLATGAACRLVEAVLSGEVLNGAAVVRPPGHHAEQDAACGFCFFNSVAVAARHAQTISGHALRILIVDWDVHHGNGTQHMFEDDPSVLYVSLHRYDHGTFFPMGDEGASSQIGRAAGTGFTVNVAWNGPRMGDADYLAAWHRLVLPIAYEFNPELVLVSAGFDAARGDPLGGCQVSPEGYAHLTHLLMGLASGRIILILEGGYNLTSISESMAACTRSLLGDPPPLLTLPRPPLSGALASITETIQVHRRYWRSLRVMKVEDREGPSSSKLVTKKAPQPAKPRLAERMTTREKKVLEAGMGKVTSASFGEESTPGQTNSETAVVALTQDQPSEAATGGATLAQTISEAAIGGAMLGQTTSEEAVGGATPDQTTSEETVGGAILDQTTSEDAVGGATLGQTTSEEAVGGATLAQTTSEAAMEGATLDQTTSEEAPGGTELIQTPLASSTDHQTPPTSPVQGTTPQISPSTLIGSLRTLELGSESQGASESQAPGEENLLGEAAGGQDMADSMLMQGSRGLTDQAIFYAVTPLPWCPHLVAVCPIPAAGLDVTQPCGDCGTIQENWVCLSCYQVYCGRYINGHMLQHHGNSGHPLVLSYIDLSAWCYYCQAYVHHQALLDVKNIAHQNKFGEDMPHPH
The series is described as follows: Inhibition of HDAC6.

Series [6] has as its system PC-3. Put plainly: Antiproliferative activity against human PC3 cells. It is filed as functional, cell-based.
Series [7] deals with Histone deacetylase 2 (Homo sapiens, UniProt Q92769).
The target of series [8] is T3, Histone deacetylase 11 (Homo sapiens, UniProt Q96DB2).
T3 sequence (Q96DB2 whole entry): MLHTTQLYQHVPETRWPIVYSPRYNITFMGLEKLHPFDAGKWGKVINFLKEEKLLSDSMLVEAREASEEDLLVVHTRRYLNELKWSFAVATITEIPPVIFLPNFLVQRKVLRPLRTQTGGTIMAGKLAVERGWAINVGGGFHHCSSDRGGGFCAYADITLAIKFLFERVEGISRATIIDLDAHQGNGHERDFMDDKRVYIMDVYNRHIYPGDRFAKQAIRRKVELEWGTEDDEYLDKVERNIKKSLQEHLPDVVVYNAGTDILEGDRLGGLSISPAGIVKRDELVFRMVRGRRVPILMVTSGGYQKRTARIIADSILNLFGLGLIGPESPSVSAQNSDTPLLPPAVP
The series is described as follows: Inhibition of HDAC11.

Series [9] is described as follows: Solubility at pH 7. It is filed as physicochemical. The following applies: buffer.
Series [10] deals with Histone deacetylase 3 (Homo sapiens, UniProt O15379). The series is described as follows: Inhibition of HDAC3.
Series [11] has as its target T1, Histone deacetylase 1. This is another data set of the same source.
In series [12] the target is Histone deacetylase 9 (Homo sapiens, UniProt Q9UKV0). The series is described as follows: Inhibition of HDAC9.
Series [13] deals with T4, Histone deacetylase 8 (Homo sapiens, UniProt Q9BY41).
T4 sequence (Q9BY41 whole entry): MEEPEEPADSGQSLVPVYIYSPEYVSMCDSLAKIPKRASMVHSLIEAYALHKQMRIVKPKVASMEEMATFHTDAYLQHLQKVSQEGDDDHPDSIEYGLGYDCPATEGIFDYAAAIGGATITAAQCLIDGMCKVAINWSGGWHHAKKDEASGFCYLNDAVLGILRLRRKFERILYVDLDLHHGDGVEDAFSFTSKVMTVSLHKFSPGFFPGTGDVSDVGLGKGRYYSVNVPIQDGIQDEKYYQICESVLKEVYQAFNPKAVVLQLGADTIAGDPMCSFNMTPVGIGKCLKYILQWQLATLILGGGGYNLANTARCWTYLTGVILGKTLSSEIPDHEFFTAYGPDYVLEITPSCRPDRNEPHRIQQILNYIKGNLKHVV
The series is described as follows: Inhibition of HDAC8.

Series [14] has as its target Histone deacetylase 5 (Homo sapiens, UniProt Q9UQL6). The series is described as follows: Inhibition of HDAC5.
For series [15], the system named is A2780. The series is described as follows: Antiproliferative activity against human A2780 cells. The class given is functional, cell-based.
A short description of series [16]: Octanol-water distribution coefficient, log D of the compound. It is filed as physicochemical.
Series [17] has as its target T1, Histone deacetylase 1. The series is described as follows: Inhibition of HDAC1 in human COLO205 cells assessed as induction of histone H3 acetylation at 10 uM by Western-immuno blotting. The class given is cell-based. Particulars: COLO 205.
Series [18] has as its target Histone deacetylase 4 (Homo sapiens, UniProt P56524). Put plainly: Inhibition of HDAC4.
A short description of series [19]: Half life in mouse liver microsome. It is filed as ADME. Particulars: liver microsomes.
In series [20] the target is Histone deacetylase 7 (Homo sapiens, UniProt Q8WUI4). The series is described as follows: Inhibition of HDAC7.
A short description of series [21]: Half life in human liver microsome. The class given is ADME. Particulars: liver microsomes.
Series [22] concerns the target T5, Polyamine deacetylase HDAC10 (Homo sapiens, UniProt Q969S8).
T5 sequence (Q969S8 whole entry): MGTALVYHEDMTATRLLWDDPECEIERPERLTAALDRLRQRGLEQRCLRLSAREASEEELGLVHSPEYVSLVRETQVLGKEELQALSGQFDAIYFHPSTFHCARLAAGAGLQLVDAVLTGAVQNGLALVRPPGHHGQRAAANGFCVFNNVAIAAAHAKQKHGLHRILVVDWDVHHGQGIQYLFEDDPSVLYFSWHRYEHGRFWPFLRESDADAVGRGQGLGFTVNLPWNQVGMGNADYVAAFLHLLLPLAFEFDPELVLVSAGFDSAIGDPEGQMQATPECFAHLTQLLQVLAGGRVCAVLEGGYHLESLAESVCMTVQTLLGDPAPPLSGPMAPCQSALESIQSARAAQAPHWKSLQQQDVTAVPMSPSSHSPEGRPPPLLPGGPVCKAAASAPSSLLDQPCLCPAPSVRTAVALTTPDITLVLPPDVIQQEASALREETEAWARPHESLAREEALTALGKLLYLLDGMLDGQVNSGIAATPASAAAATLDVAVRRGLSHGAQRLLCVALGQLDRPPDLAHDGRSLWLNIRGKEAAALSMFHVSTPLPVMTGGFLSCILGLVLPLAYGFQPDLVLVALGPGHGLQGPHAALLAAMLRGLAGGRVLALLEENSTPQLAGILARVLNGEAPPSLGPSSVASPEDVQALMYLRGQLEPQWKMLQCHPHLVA
Put plainly: Inhibition of HDAC10.

Converted amounts (≈) assume the structure as drawn. The source made the active and inactive calls. The rule behind the calls is not given here.

T1 sequence (Q13547 whole entry): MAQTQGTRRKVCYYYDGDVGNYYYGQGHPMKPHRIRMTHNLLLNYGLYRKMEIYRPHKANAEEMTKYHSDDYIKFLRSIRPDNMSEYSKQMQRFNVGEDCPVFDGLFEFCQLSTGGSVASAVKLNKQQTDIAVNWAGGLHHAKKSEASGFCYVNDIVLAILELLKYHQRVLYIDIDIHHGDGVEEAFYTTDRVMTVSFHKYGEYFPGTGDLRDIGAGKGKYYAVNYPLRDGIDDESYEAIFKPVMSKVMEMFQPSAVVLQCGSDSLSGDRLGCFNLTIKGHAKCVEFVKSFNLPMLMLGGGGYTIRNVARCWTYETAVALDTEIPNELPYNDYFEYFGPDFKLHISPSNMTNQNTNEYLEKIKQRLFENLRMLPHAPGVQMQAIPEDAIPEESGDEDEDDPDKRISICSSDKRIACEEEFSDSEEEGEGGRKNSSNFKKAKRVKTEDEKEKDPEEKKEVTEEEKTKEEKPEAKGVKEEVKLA
Chain of Histone deacetylase 7 (Q8WUI4 whole entry, looked up): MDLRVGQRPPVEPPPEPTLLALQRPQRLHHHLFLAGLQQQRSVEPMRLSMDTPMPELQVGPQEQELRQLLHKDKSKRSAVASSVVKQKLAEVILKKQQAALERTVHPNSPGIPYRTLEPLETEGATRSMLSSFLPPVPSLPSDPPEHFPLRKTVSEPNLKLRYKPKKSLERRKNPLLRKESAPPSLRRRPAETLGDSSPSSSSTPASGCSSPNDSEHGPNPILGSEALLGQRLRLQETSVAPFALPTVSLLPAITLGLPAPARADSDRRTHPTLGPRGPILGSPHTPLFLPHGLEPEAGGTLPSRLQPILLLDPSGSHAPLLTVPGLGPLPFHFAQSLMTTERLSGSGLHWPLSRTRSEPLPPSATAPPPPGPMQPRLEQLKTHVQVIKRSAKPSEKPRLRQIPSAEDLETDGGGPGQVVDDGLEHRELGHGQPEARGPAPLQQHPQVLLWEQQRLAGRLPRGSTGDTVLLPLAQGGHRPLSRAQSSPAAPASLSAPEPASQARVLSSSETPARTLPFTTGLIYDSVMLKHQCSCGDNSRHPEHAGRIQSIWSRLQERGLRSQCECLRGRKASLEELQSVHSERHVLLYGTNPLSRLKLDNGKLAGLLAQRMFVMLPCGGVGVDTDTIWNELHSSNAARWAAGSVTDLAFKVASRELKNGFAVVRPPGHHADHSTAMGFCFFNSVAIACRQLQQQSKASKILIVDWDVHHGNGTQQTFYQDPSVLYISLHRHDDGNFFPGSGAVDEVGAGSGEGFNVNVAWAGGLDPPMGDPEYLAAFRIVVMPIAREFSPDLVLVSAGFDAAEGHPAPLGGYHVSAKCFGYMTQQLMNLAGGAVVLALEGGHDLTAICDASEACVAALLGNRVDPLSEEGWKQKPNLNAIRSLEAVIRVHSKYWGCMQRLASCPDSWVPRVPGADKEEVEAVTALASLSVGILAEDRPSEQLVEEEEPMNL
Chain of Histone deacetylase 9 (Q9UKV0 whole entry): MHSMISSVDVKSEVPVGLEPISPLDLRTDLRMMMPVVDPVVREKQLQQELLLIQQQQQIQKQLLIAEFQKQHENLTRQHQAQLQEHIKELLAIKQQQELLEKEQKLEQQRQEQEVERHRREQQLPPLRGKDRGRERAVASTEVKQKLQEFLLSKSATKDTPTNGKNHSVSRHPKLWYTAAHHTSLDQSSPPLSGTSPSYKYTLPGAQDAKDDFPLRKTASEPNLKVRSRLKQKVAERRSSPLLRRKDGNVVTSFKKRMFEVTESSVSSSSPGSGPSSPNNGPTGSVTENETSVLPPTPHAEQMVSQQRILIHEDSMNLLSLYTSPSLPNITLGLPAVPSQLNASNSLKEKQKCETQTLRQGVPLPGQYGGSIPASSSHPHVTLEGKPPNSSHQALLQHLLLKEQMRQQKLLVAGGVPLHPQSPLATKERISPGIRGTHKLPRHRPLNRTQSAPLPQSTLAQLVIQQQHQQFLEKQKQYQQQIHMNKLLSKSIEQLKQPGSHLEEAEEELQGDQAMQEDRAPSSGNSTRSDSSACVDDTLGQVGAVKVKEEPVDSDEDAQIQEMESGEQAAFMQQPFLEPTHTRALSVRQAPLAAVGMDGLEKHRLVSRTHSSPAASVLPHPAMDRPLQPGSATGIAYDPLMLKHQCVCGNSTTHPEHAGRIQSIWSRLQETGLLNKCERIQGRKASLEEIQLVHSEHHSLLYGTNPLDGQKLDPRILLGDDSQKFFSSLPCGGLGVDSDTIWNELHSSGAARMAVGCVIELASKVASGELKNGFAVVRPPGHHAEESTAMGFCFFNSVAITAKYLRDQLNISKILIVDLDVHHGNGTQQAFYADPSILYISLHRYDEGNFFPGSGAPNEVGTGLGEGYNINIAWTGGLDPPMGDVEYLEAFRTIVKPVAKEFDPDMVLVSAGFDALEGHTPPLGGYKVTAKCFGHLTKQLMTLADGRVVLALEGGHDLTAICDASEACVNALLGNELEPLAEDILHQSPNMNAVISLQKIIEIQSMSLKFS
Chain of Histone deacetylase 5 (Q9UQL6 whole entry): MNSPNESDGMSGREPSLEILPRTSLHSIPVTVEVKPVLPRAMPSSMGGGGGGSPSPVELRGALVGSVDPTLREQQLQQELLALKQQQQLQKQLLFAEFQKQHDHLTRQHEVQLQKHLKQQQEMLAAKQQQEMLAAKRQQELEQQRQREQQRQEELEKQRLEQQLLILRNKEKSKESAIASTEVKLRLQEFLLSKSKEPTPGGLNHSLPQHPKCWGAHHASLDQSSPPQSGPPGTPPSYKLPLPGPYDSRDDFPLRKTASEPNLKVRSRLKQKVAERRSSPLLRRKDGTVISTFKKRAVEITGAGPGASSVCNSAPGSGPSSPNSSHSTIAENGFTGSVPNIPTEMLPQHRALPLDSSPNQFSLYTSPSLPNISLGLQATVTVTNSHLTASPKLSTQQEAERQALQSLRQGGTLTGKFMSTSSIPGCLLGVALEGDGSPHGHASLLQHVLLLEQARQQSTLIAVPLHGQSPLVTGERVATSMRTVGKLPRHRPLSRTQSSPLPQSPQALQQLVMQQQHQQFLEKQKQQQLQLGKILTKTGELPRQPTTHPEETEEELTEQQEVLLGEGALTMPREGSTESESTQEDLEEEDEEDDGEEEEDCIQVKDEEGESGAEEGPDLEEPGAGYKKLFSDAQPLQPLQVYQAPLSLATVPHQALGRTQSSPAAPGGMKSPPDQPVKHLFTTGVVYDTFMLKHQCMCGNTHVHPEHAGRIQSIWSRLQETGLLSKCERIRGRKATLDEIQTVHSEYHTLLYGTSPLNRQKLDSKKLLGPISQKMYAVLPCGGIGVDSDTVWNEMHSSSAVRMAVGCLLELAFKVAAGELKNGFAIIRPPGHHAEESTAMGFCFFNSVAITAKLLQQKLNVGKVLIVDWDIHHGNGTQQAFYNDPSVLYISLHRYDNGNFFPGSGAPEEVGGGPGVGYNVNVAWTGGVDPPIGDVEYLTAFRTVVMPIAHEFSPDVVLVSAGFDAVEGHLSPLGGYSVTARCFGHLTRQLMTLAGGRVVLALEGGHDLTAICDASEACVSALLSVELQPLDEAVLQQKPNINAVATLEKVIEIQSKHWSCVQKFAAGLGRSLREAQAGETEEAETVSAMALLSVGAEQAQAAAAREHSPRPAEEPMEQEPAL
Chain of Histone deacetylase 3 (O15379 whole entry): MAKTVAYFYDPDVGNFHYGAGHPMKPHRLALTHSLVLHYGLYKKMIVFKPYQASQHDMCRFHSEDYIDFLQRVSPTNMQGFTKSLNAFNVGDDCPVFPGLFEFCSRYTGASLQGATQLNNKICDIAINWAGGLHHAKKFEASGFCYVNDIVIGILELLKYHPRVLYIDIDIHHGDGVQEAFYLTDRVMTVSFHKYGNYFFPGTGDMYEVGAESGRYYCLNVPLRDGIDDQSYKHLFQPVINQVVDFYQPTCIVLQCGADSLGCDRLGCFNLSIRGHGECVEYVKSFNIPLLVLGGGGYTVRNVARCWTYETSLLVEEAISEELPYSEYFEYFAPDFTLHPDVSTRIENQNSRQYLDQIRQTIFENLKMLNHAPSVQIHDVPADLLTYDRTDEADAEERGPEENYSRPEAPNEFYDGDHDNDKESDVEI
Chain of Histone deacetylase 4 (P56524 whole entry): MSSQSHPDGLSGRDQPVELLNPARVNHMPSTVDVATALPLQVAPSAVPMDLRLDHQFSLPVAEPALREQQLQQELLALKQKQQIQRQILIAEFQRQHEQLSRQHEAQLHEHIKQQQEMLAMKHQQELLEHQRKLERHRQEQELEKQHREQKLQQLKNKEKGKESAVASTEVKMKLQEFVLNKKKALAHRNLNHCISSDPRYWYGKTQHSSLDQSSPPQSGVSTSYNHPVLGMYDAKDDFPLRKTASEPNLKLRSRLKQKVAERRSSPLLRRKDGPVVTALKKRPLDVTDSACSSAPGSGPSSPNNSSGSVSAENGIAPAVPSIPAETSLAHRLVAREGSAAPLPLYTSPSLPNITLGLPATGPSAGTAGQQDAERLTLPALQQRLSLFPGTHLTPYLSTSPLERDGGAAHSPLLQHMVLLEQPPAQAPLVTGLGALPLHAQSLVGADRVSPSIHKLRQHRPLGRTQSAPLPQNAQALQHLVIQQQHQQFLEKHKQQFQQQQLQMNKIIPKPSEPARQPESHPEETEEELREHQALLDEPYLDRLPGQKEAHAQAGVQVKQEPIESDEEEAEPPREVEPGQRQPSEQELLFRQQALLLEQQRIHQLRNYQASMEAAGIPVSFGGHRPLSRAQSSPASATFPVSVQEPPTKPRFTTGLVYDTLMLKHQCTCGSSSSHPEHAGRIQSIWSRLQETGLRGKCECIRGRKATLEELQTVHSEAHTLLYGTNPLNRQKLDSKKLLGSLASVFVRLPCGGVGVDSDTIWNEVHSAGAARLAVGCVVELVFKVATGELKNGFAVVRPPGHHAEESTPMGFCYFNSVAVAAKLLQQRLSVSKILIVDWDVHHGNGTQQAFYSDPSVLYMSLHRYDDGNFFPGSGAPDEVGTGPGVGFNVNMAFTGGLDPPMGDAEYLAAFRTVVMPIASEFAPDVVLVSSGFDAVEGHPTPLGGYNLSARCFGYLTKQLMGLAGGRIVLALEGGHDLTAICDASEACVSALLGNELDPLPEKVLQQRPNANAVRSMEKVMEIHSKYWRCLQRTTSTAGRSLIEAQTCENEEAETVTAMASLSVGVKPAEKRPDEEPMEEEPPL

For the compound `O=C(CCCCCNC(=O)NC(=O)c1ccc(Br)cc1)NO`, in series [1], the solubility thermodynamic was determined as 15 µg/mL (≈ 40.3 µM). Besides, the half-life (in general, how long it takes for the measured level to halve) in series [2] is 53 min; in [19], 31 min; in [21], more than 60 min. The 50% inhibitory concentration (IC50) (usually the point on the concentration scale where inhibition reaches its midpoint) in series [3] was 13 nM; in series [4] it was 600 nM; in series [6], 660 nM; in series [11], 870 nM; in series [15], 450 nM. Besides, the inhibition constant Ki (as a rule, the equilibrium dissociation constant of an inhibitor or competing ligand from its target) was found to be 8 nM in [3]; 8 nM in series [5]; 12 nM in series [7]; 9 nM in series [8]; 8 nM in [10]; 6 nM in [12]. In addition, the Ki in series [13] worked out at 315 nM; in [14] it was 13 nM; in [18] it was 6 nM; in series [20] it was 31 nM; in series [22] it was 9 nM. In addition, the concentration in solution in series [9] (solubility) was 51 µM (≈ 19 µg/mL). For the same compound, in [16], the logD (commonly lipophilicity at a set pH, counting ionised and neutral species) turned out to be 1.72. The result in [17] was Active.

Values taken from ChEMBL document CHEMBL1155491, “Acylurea connected straight chain hydroxamates as novel histone deacetylase inhibitors: Synthesis, SAR, and in vivo antitumor activity” (Bioorg Med Chem Lett, 2010).
